In US20200270557A1, “HUMAN IN VITRO ORTHOTOPIC AND METASTATIC MODELS OF CANCER” (PRESIDENT AND FELLOWS OF HARVARD COLLEGE, priority 2017, published 2020):

Key:
H1975 NSCLC cells [1] = assay: growth inhibition of H1975 NSCLC cells cultured alone under conventional static culture conditions; format: cell-based; details: Homo sapiens, NCI-H1975, read-out: half-maximal inhibition
H1975 NSCLC cells [2] = assay: NSCLC cancer cell growth in microfluidic device (orthotopic lung model) with or without breathing motions; format: cell-based, human; details: H1975 NSCLC cells cultured within the microfluidic devices
Experimental: Primary human lung microvascular endothelial cells were plated the same way as discussed above, except that these cells were plated first with endothelial growth medium. The GFP-labeled NSCLC tumor cells and primary alveolar epithelial cells were then plated using the same method as described above. The following day, the upper microchannel was perfused with epithelial growth medium containing 1 μM dexamethasone and flushed manually for 2-3 days, after which the medium in the upper microchannel was removed to create an air-liquid interface, while the lower microchannel was continuously perfused with air-liquid interface medium at 60 μL/hr. […]
Analysis of cancer cell growth and responses of cancer cells can be monitored visually through the microfluidic device. As discussed above, cancer cell growth can be monitored non-invasively using fluorescence microscopy, such as with a Zeiss TIRF/LSM 710 confocal microscopy and Hamamatsu ImagEM-1K BackThinned EMCCD camera. The number of GFP-labeled cancer cells can be estimated using fluorescence microscopy based on a standard curve generated experimentally that correlates cell density to GFP fluorescence intensity. […]

c-Met = c-Met expression and phosphorylation in NSCLC cells under cyclic mechanical strain; format: cell-based, human
Excerpt: Further, many patients with the EGFR […]/T790M mutation who develop resistance to 3rd generation TKIs overexpress the tyrosine protein kinase c-Met, and c-MET overexpression has been implicated as a mechanism of resistance to TKI therapy in NSCLC patients. […] Thus, mechanical breathing motions also may suppress NSCLC cell response to TKI therapy by altering this signaling pathway.

IC50 (H1975 NSCLC cells [1])	SMILES	response of NSCLC cells to TKIs (H1975 NSCLC cells [2])	effect of increasing dose on expression and phosphorylation of c-Met (c-Met)
~100 nM	C#Cc1cccc(Nc2ncnc3cc(OCCOC)c(OCCOC)cc23)c1 [erlotinib]	responded	
> 1000 nM	C=CC(=O)Nc1cccc(Nc2nc(Nc3ccc(N4CCN(C(C)=O)CC4)cc3OC)ncc2C(F)(F)F)c1 [rociletinib]		no significant effect
